According to ChEMBL document CHEMBL1201862, “PubChem BioAssay data set” (2004):
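Interpolation was linear, between the two tested concentrations surrounding the appropriate level; five concentrations were tested over 48 hours in 96-well plates. GI50 = concentration required for 50% inhibition of growth.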 Active and inactive are the calls of the source. No stated cut-off is given here; in the data, active = GI50 up to about 1.1 µM and inactive = higher.

Assays:
Assay in all cases: NCI-60 cell line screen, 48 h
MCF7 = system: MCF7
A549 = system: A549
SK-MEL-5 = system: SK-MEL-5
SK-MEL-28 = system: SK-MEL-28
DU-145 = system: DU-145
MDA-N = system: MDA-N
UO-31 = system: UO-31
SK-MEL-2 = system: SK-MEL-2
T47D = system: T47D
SW-620 = system: SW-620
MDA-MB-231 = system: MDA-MB-231
HCT-116 = system: HCT-116
IGROV-1 = system: IGROV-1
SF-295 = system: SF-295
SF-539 = system: SF-539
A498 = system: A498
HCT-15 = system: HCT-15
BT-549 = system: BT-549
OVCAR-8 = system: OVCAR-8
PC-3 = system: PC-3
RPMI-8226 = system: RPMI-8226
K562 = system: K562
OVCAR-5 = system: OVCAR-5
HCC 2998 = system: HCC 2998
NCI-H23 = system: NCI-H23
SN12C = system: SN12C
ACHN = system: ACHN
SNB-75 = system: SNB-75
SNB-19 = system: SNB-19
HL-60 = system: HL-60
NCI-H460 = system: NCI-H460
RXF 393 = system: RXF 393
EKVX = system: EKVX
LOX IMVI = system: LOX IMVI
MOLT-4 = system: MOLT-4
CAKI-1 = system: CAKI-1
SK-OV-3 = system: SK-OV-3
UACC-62 = system: UACC-62
NCI/ADR-RES = system: NCI/ADR-RES
M14 = system: M14
Malme-3M = system: Malme-3M
786-0 = system: 786-0
HOP-62 = system: HOP-62
COLO 205 = system: COLO 205
NCI-H522 = system: NCI-H522
OVCAR-3 = system: OVCAR-3
CCRF-CEM = system: CCRF-CEM
HT-29 = system: HT-29
MDA-MB-435 = system: MDA-MB-435
OVCAR-4 = system: OVCAR-4
Hs-578T = system: Hs-578T
HOP-92 = system: HOP-92
SF-268 = system: SF-268
NCI-H226 = system: NCI-H226
U-251 = system: U-251
KM12 = system: KM12
TK-10 = system: TK-10
UACC-257 = system: UACC-257

With `Cn1c(SCc2ccc([N+](=O)[O-])cc2)nnc1C12CC3CC(CC(C3)C1)C2` the GI50 (MCF7) was > 10 µM (inactive), the GI50 (A549) was > 10 µM (inactive) and the GI50 (SK-MEL-5) was > 10 µM (inactive). The GI50 (SK-MEL-28) was > 10 µM (inactive), the GI50 (DU-145) was > 10 µM (inactive) and the GI50 (MDA-N) was > 10 µM (inactive). The GI50 (UO-31) was > 10 µM (inactive), the GI50 (SK-MEL-2) was > 10 µM (inactive) and the GI50 (T47D) was > 10 µM (inactive). The GI50 (SW-620) was > 10 µM (inactive), the GI50 (MDA-MB-231) was > 10 µM (inactive) and the GI50 (HCT-116) was > 10 µM (inactive). For the same compound, the GI50 (IGROV-1) was > 10 µM (inactive), the GI50 (SF-295) was > 10 µM (inactive) and the GI50 (SF-539) was > 10 µM (inactive). For the same compound, the GI50 (A498) was > 10 µM (inactive), the GI50 (HCT-15) was over 10 µM and the GI50 (BT-549) was > 10 µM (inactive). The GI50 (OVCAR-8) was > 10 µM (inactive), the GI50 (PC-3) was > 10 µM (inactive) and the GI50 (RPMI-8226) was > 10 µM (inactive). The GI50 (K562) was > 10 µM (inactive), the GI50 (OVCAR-5) was > 10 µM (inactive) and the GI50 (HCC 2998) was > 10 µM (inactive). For the same compound, the GI50 (NCI-H23) was > 10 µM (inactive), the GI50 (SN12C) was > 10 µM (inactive) and the GI50 (ACHN) was > 10 µM (inactive). For the same compound, the GI50 (SNB-75) was 4.66 µM (inactive), the GI50 (SNB-19) was > 10 µM (inactive) and the GI50 (HL-60) was > 10 µM (inactive). For the same compound, the GI50 (NCI-H460) was > 10 µM (inactive), the GI50 (RXF 393) was > 10 µM (inactive) and the GI50 (EKVX) was > 10 µM (inactive). For the same compound, the GI50 (LOX IMVI) was > 10 µM (inactive), the GI50 (MOLT-4) was > 10 µM (inactive) and the GI50 (CAKI-1) was > 10 µM (inactive). The GI50 (SK-OV-3) was > 10 µM (inactive), the GI50 (UACC-62) was > 10 µM (inactive) and the GI50 (NCI/ADR-RES) was > 10 µM (inactive). The GI50 (M14) was > 10 µM (inactive), the GI50 (Malme-3M) was > 10 µM (inactive) and the GI50 (786-0) was > 10 µM (inactive). The GI50 (HOP-62) was > 10 µM (inactive), the GI50 (COLO 205) was > 10 µM (inactive) and the GI50 (NCI-H522) was > 10 µM (inactive). For the same compound, the GI50 (OVCAR-3) was > 10 µM (inactive), the GI50 (CCRF-CEM) was > 10 µM (inactive) and the GI50 (HT-29) was > 10 µM (inactive). The GI50 (MDA-MB-435) was > 10 µM (inactive), the GI50 (OVCAR-4) was > 10 µM (inactive) and the GI50 (Hs-578T) was > 10 µM (inactive). The GI50 (HOP-92) was > 10 µM (inactive), the GI50 (SF-268) was > 10 µM (inactive) and the GI50 (NCI-H226) was > 10 µM (inactive). The GI50 (U-251) was > 10 µM (inactive) and the GI50 (KM12) was > 10 µM (inactive).
In the case of `COc1ccccc1C1=C2C(=O)N(C)C(c3ccccc3OC)=C2C(=O)N1C`, the GI50 (MCF7) is reported as > 100 µM (inactive), the GI50 (A549) is reported as 44.1 µM (inactive) and the GI50 (SK-MEL-5) is reported as > 100 µM (inactive). For the same compound, the GI50 (SK-MEL-28) was 76.6 µM (inactive), the GI50 (DU-145) was > 100 µM (inactive) and the GI50 (MDA-N) was > 100 µM (inactive). The GI50 (UO-31) was 50.8 µM (inactive), the GI50 (T47D) was 71.3 µM (inactive) and the GI50 (SW-620) was > 100 µM (inactive). For the same compound, the GI50 (MDA-MB-231) was 48.1 µM (inactive), the GI50 (HCT-116) was 37.4 µM (inactive) and the GI50 (IGROV-1) was > 100 µM (inactive). For the same compound, the GI50 (SF-295) was 51.4 µM (inactive), the GI50 (SF-539) was 27.6 µM (inactive) and the GI50 (A498) was 63 µM (inactive). For the same compound, the GI50 (TK-10) was 70.6 µM (inactive), the GI50 (HCT-15) was over 100 µM and the GI50 (BT-549) was > 100 µM (inactive). The GI50 (OVCAR-8) was 39.2 µM (inactive), the GI50 (PC-3) was > 100 µM (inactive) and the GI50 (K562) was > 100 µM (inactive). For the same compound, the GI50 (OVCAR-5) was > 100 µM (inactive), the GI50 (HCC 2998) was > 100 µM (inactive) and the GI50 (NCI-H23) was 59 µM (inactive). The GI50 (SN12C) was > 100 µM (inactive), the GI50 (ACHN) was 68.5 µM (inactive) and the GI50 (SNB-19) was 32 µM (inactive). The GI50 (HL-60) was > 100 µM (inactive), the GI50 (NCI-H460) was 84.1 µM (inactive) and the GI50 (EKVX) was > 100 µM (inactive). For the same compound, the GI50 (LOX IMVI) was > 100 µM (inactive), the GI50 (MOLT-4) was > 100 µM (inactive) and the GI50 (CAKI-1) was > 100 µM (inactive). For the same compound, the GI50 (SK-OV-3) was 69.8 µM (inactive), the GI50 (UACC-62) was > 100 µM (inactive) and the GI50 (NCI/ADR-RES) was 45.7 µM (inactive). The GI50 (M14) was > 100 µM (inactive), the GI50 (Malme-3M) was 45.4 µM (inactive) and the GI50 (786-0) was 29.5 µM (inactive). For the same compound, the GI50 (HOP-62) was 18.9 µM (inactive), the GI50 (COLO 205) was > 100 µM (inactive) and the GI50 (NCI-H522) was 43.2 µM (inactive). For the same compound, the GI50 (OVCAR-3) was 33.5 µM (inactive), the GI50 (CCRF-CEM) was > 100 µM (inactive) and the GI50 (HT-29) was > 100 µM (inactive). The GI50 (MDA-MB-435) was > 100 µM (inactive), the GI50 (OVCAR-4) was 37.2 µM (inactive) and the GI50 (Hs-578T) was 43.8 µM (inactive). The GI50 (HOP-92) was 30.3 µM (inactive), the GI50 (SF-268) was 36.1 µM (inactive) and the GI50 (UACC-257) was 79.8 µM (inactive). The GI50 (NCI-H226) was 84.3 µM (inactive), the GI50 (U-251) was 37.9 µM (inactive) and the GI50 (KM12) was > 100 µM (inactive).
